Consider 22 compounds from PMC6009913, “N-aryl 2-aryloxyacetamides as a new class of fatty acid amide hydrolase (FAAH) inhibitors” (Journal of Enzyme Inhibition and Medicinal Chemistry, 2017).

Data set [1] has as its target T1, FAAH (Rattus norvegicus, UniProt P97612).
T1 construct: using rat brain homogenates as enzyme source; from tissue; host or cells: rat brain homogenate
T1 sequence (P97612 1-579): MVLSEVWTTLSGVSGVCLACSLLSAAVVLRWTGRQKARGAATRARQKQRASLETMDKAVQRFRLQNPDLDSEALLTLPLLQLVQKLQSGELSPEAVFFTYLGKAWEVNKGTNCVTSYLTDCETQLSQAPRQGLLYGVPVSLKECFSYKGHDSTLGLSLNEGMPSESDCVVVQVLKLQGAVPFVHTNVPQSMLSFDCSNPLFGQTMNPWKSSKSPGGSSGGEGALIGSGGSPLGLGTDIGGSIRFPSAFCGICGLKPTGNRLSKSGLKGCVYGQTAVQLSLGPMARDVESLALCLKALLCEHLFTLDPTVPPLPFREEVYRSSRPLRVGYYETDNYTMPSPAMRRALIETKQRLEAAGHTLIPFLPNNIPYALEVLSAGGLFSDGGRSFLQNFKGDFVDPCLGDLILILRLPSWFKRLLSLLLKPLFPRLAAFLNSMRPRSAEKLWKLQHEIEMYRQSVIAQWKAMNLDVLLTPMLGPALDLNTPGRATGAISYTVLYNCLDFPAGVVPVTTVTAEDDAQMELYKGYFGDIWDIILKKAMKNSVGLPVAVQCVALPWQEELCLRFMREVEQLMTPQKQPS
Nature of the data set: FAAH inhibition, hydrolysis of 0.5 µM [3H]AEA in rat brain homogenates. Format: biochemical. As to conditions: for Maximum inhibition: maximal attainable inhibition according to preferred curve fit, mean ± standard error; for effect of pre-incubation on inhibition curve (time dependence): 60 vs. 0 min of pre-incubation.

Data set [2] can be described thus: thermodynamic aqueous solubility in phosphate-buffered saline. The data set is classed as physicochemical. The conditions noted are these: aqueous buffer, thermodynamic from solid; phosphate-buffered saline 10 mM, pH 7.48, 37 °C.
Data set [3] deals with FAAH. The arrangement: method as in PMID 12461523. As to conditions: previously reported data; cited from earlier work.
For data set [4], the system named is FAAH. Also noted: method as in PMID 21502526. The conditions noted are these: reported; cited from earlier work.
Setting [5] is: 60-min pre-incubation with enzyme.

Converted amounts (≈) assume the structure as drawn. Read-outs that look alike come from different tables or passages of the source.

Turning to `O=C(COc1ccc(-c2ccccc2)cc1)Nc1ccccc1-c1nc2ncccc2o1` [4a, 2-([1,1′-Biphenyl]-4-yloxy)-N-(2-(oxazolo[4,5-b]pyridin-2-yl)phenyl)acetamide], the Maximum inhibition on FAAH [1] (no pre-incubation) amounted to 3 ± 5%.

Regarding `O=C(COc1ccc(C2CCCCC2)cc1)Nc1ccccc1-c1nc2ncccc2o1` [4b, 2-(4-Cyclohexylphenoxy)-N-(2-(oxazolo[4,5-b]pyridin-2-yl)phenyl)acetamide], the Maximum inhibition on FAAH [1] (no pre-incubation) is given as −1 ± 3%.

Turning to `CCC/C=C/COCC(=O)Nc1ccccc1-c1nc2ncccc2o1` [4c, (E)-2-(hex-2-en-1-yloxy)-N-(2-(oxazolo[4,5-b]pyridin-2-yl)phenyl)acetamide], at FAAH [1] (no pre-incubation), the Maximum inhibition came to 7 ± 3%.

Take `O=C(COc1ccccc1)Nc1cccc(-c2nc3ncccc3o2)c1` [4d, N-(3-(oxazolo[4,5-b]pyridin-2-yl)phenyl)-2-phenoxyacetamide]: at FAAH [1] (no pre-incubation), the Maximum inhibition is 100%.

`CC(C)c1ccc(OCC(=O)Nc2cccc(-c3nc4ncccc4o3)c2)cc1` [4e, 2-(4-Isopropylphenoxy)-N-(3-(oxazolo[4,5-b]pyridin-2-yl)phenyl)acetamide]: the Maximum inhibition at FAAH [1] (no pre-incubation) is given as 100%.

Regarding `O=C(COc1ccc(-c2ccccc2)cc1)Nc1cccc(-c2nc3ncccc3o2)c1` [4f, 2-([1,1′-Biphenyl]-4-yloxy)-N-(3-(oxazolo[4,5-b]pyridin-2-yl)phenyl)acetamide], the solubility (thermodynamic) (usually the concentration in solution at equilibrium with solid) in data set [2] is 3 to 20 µM (≈ 1.26 to 8.43 µg/mL).

As to `O=C(COc1ccc(C2CCCCC2)cc1)Nc1cccc(-c2nc3ncccc3o2)c1` [4g, 2-(4-Cyclohexylphenoxy)-N-(3-(oxazolo[4,5-b]pyridin-2-yl)phenyl)acetamide], the Maximum inhibition on FAAH [1] (no pre-incubation) is 100%.

For `CCC/C=C/COCC(=O)Nc1cccc(-c2nc3ncccc3o2)c1` [4h, (E)-2-(hex-2-en-1-yloxy)-N-(3-(oxazolo[4,5-b]pyridin-2-yl)phenyl)acetamide], the Maximum inhibition at FAAH [1] (no pre-incubation) was found to be 100%.

On to `O=C(COc1ccc(-c2ccccc2)cc1)Nc1ccc(-c2nc3ncccc3o2)cc1` [4i, 2-([1,1′-Biphenyl]-4-yloxy)-N-(4-(oxazolo[4,5-b]pyridin-2-yl)phenyl)acetamide], for which the thermodynamic solubility in data set [2] was 18 µM (≈ 7.59 µg/mL). In addition, at FAAH [1] (setting [5]), the IC50 (usually the midpoint of a concentration-inhibition curve) came out at 280 nM and the maximum observed inhibition came out at 39 ± 2%. In addition, at FAAH [1] (no pre-incubation), the Maximum inhibition is recorded as 75 ± 4%.

`O=C(COc1ccc(C2CCCCC2)cc1)Nc1ccc(-c2nc3ncccc3o2)cc1` [4j, 2-(4-Cyclohexylphenoxy)-N-(4-(oxazolo[4,5-b]pyridin-2-yl)phenyl)acetamide]: on FAAH [1] (no pre-incubation), the Maximum inhibition was found to be 19 ± 10%.

Turning to `CCC/C=C/COCC(=O)Nc1ccc(-c2nc3ncccc3o2)cc1` [4k, (E)-2-(hex-2-en-1-yloxy)-N-(4-(oxazolo[4,5-b]pyridin-2-yl)phenyl)acetamide], the Maximum inhibition at FAAH [1] (no pre-incubation) was 46 ± 9%.

In the case of `O=C(COc1ccc(-c2ccccc2)cc1)Nc1ccccc1-c1nc2ncccc2[nH]1` [4l, N-(2-(1H-imidazo[4,5-b]pyridin-2-yl)phenyl)-2-([1,1'-biphenyl]-4-yloxy)acetamide], the “effect of pre-incubation on inhibition curve (time dependence)” value on FAAH [1] is recorded as “reduced maximal inhibition”. For the same compound, the Maximum inhibition at FAAH [1] (no pre-incubation) stood at 70 ± 2%.

In turn, `O=C(COc1ccc(C2CCCCC2)cc1)Nc1ccccc1-c1nc2ncccc2[nH]1` [4m, N-(2-(1H-imidazo[4,5-b]pyridin-2-yl)phenyl)-2-(4-cyclohexylphenoxy)acetamide] yielded a solubility (thermodynamic) in data set [2] of 3 to 20 µM (≈ 1.28 to 8.53 µg/mL). Also, at FAAH [1], the “effect of pre-incubation on inhibition curve (time dependence)” value is listed as “reduced maximal inhibition”. Moreover, the Maximum inhibition on FAAH [1] (no pre-incubation) worked out at 82 ± 3%.

With `CCC/C=C/COCC(=O)Nc1ccccc1-c1nc2ncccc2[nH]1` [4n, (E)-N-(2–(1H-imidazo[4,5-b]pyridin-2-yl)phenyl)-2-(hex-2-en-1-yloxy)acetamide], the Maximum inhibition at FAAH [1] (no pre-incubation) stood at 100%.

For the compound `O=C(COc1ccc(-c2ccccc2)cc1)Nc1cccc(-c2nc3ncccc3[nH]2)c1` [4o, N-(3-(1H-imidazo[4,5-b]pyridin-2-yl)phenyl)-2-([1,1'-biphenyl]-4-yloxy)acetamide], the Maximum inhibition on FAAH [1] (no pre-incubation) came to 71 ± 9%.

As to `O=C(COc1ccc(C2CCCCC2)cc1)Nc1cccc(-c2nc3ncccc3[nH]2)c1` [4p, N-(3-(1H-imidazo[4,5-b]pyridin-2-yl)phenyl)-2-(4-cyclohexylphenoxy)acetamide], on FAAH [1] (no pre-incubation), the Maximum inhibition turned out to be 100%.

With `CCC/C=C/COCC(=O)Nc1cccc(-c2nc3ncccc3[nH]2)c1` [4q, (E)-N-(3-(1H-imidazo[4,5-b]pyridin-2-yl)phenyl)-2-(hex-2-en-1-yloxy)acetamide], on FAAH [1] (no pre-incubation), the Maximum inhibition stood at 100%.

As for `O=C(COc1ccc(-c2ccccc2)cc1)Nc1ccc(-c2nc3ncccc3[nH]2)cc1` [4r, N-(4-(1H-imidazo[4,5-b]pyridin-2-yl)phenyl)-2-([1,1'-biphenyl]-4-yloxy)acetamide], the solubility (thermodynamic) in data set [2] was 20 µM (≈ 8.41 µg/mL). The “effect of pre-incubation on inhibition curve (time dependence)” value on FAAH [1] was “reduced maximal inhibition”. The Maximum inhibition on FAAH [1] (no pre-incubation) was 80 ± 2%.

Compound `O=C(COc1ccc(C2CCCCC2)cc1)Nc1ccc(-c2nc3ncccc3[nH]2)cc1` [4s, N-(4-(1H-imidazo[4,5-b]pyridin-2-yl)phenyl)-2-(4-cyclohexylphenoxy)acetamide] gave a thermodynamic solubility in data set [2] of 3 µM (≈ 1.28 µg/mL). Further, on FAAH [1], the “effect of pre-incubation on inhibition curve (time dependence)” value was “essentially identical inhibition curves”. For the same compound, the Maximum inhibition at FAAH [1] (no pre-incubation) was 62 ± 4%.

Consider `CCC/C=C/COCC(=O)Nc1ccc(-c2nc3ncccc3[nH]2)cc1` [4t, (E)-N-(4-(1H-imidazo[4,5-b]pyridin-2-yl)phenyl)-2-(hex-2-en-1-yloxy)acetamide], for which the IC50 against FAAH [1] (setting [5]) worked out at 43000 nM; against FAAH [1] (rat brain homogenates, 0.5 µM [3H]AEA, no pre-incubation, pooled from three independent experiments, 5–7 concentrations) it was 64000 nM. In addition, the “effect of pre-incubation on inhibition curve (time dependence)” value on FAAH [1] is reported as “A small degree of time-dependent inhibition”. Also, the Maximum inhibition at FAAH [1] (no pre-incubation) was found to be 100%.

Consider `NC(=O)c1cccc(-c2cccc(OC(=O)NC3CCCCC3)c2)c1` [URB597], for which the half-inhibitory concentration (IC50) with FAAH [3] was 4.6 ± 1.6 nM.

With `CCn1c(=O)n([C@H]2CCCN(c3nccc(-c4cc5ccccc5o4)n3)C2)c2ccccc21` [crystal ligand, 1-{(3S)-1-[4–(1-benzofuran-2-yl)pyrimidin-2-yl]piperidin-3-yl}-3-ethyl-1,3-dihydro-2H-benzimidazol-2-one], the half-inhibitory concentration (IC50) in the data set with FAAH [4] was 100 nM.
